This is an account of results in ChEMBL document CHEMBL1212917, “Substituted E-3-(3-indolylmethylene)-1,3-dihydroindol-2-ones with antitumor activity. In depth study of the effect on growth of breast cancer cells” (2010).

What all share (assay type): functional
Assay [1] can be described thus: Growth inhibition of human leukemia cells after 48 hrs. Conditions: Leukemia cell; for CC50: read-out: LC50 (the source's name).
The next assay relates to NSCLC. Description: Growth inhibition of human NSCLC cells after 48 hrs.
Assay [2] can be described thus: Growth inhibition of human colon cancer cells after 48 hrs. The settings on record: Cancer cell lines; for CC50: read-out: LC50 (the source's name).
A short description of assay [3]: Growth inhibition of human CNS cancer cells after 48 hrs. The settings on record: Cancer cell lines; for CC50: read-out: LC50 (the source's name).
A short description of assay [4]: Growth inhibition of human melanoma cells after 48 hrs. Conditions: Melanoma cell; for CC50: read-out: LC50 (the source's name).
The nature of assay [5]: Growth inhibition of human Ovarian cancer cells after 48 hrs. The settings on record: Cancer cell lines; for CC50: read-out: LC50 (the source's name).
Assay [6] in a line: Growth inhibition of human renal cancer cells after 48 hrs. Conditions: Cancer cell lines; for CC50: read-out: LC50 (the source's name).
Assay [7] is described as follows: Growth inhibition of human prostate cancer cells after 48 hrs. Conditions: Cancer cell lines; for CC50: read-out: LC50 (the source's name).
The nature of assay [8]: Growth inhibition of human breast cancer cells after 48 hrs. Conditions: Cancer cell lines; for CC50: read-out: LC50 (the source's name).

SMILES strings stand for the structures.

As to `O=C1Nc2cccc(Cl)c2/C1=C\c1c(Cl)[nH]c2c1ccc1ccccc12`, the GI50 in assay [1] turned out to be 5.5 µM; with NSCLC, 9.55 µM; in assay [2], 4.9 µM; in assay [3], 3.63 µM; in assay [4], 4.57 µM; in assay [5], 2.51 µM. Also, the values for the concentration for 50% growth inhibition (GI50) in assay [6], in assay [7] and in assay [8] were 8.91 µM, 10.2 µM and 5.01 µM, respectively. Further, the concentration for total growth inhibition (TGI) in [1] was found to be 25.7 µM; in the assay with NSCLC, 28.2 µM; in assay [2], 17.4 µM; in assay [3], 17.8 µM; in assay [4], 19.1 µM; in assay [5] it was 13.2 µM. Also, the TGI was found to be 23.4 µM in assay [6], 31.6 µM in [7] and 19.9 µM in [8]. The CC50 in assay [1] came to 75.9 µM; in assay [2] it was 47.9 µM; in assay [3], 53.7 µM; in assay [4] it was 46.8 µM; in [5], 57.5 µM; in assay [6], 56.2 µM. The CC50 is 63.1 µM in assay [7] and 67.6 µM in assay [8]. In the assay with NSCLC, this molecule showed a 50% lethal concentration (LC50) of 72.4 µM.
In the case of `COc1cc2c(cc1C)NC(=O)/C2=C/c1c(Cl)n(C)c2cc(C)c(OC)cc12`, the GI50 in assay [1] amounted to 18.2 µM; in the assay with NSCLC, 34.7 µM; in assay [2], 22.9 µM; in assay [3], 26.9 µM; in assay [4] it was 15.1 µM; in assay [5], 30.2 µM. Also, the results for the concentration for 50% growth inhibition (GI50) in [6], in assay [7] and in assay [8] were 41.7 µM, 22.4 µM and 18.6 µM, respectively. The CC50 was 97.7 µM in assay [1], 57.5 µM in assay [4] and 95.5 µM in assay [8].
Take `COc1cc2c(/C=C3/C(=O)N(C)c4ccccc43)c(Cl)n(C)c2cc1C`: the GI50 in [1] amounted to 0.25 µM; with NSCLC, 0.58 µM; in assay [2], 0.2 µM; in assay [3], 0.2 µM; in assay [4], 0.34 µM; in [5], 0.38 µM. The GI50 amounted to 0.33 µM in assay [6], 0.39 µM in assay [7] and 0.28 µM in [8]. For the same molecule, the CC50 in assay [1] turned out to be 46.8 µM; in [2] it was 72.4 µM; in assay [3] it was 74.1 µM; in assay [4] it was 69.2 µM; in assay [5] it was 95.5 µM; in assay [6], 79.4 µM. The values for the CC50 in assay [7] and in [8] were 66.1 µM and 95.5 µM, respectively.
`COc1cc2c(cc1C)NC(=O)/C2=C/c1c(Cl)[nH]c2c1ccc1ccccc12` showed a median lethal concentration (LC50) in the assay with NSCLC of 47.9 µM. This molecule yielded a GI50 in assay [3] of 0.31 µM.
Consider `COc1cc2c(/C=C3/C(=O)Nc4ccc(Br)cc43)c(Cl)[nH]c2cc1C`, for which the concentration for 50% growth inhibition (GI50) in [1] turned out to be 1.62 µM; with NSCLC it was 3.02 µM; in assay [2] it was 1.95 µM; in [3], 1.58 µM; in [4], 2.14 µM; in assay [5], 2 µM. For the same molecule, the concentration for 50% growth inhibition (GI50) came out at 2.45 µM in assay [6], 2.24 µM in assay [7] and 2.14 µM in assay [8]. Further, the CC50 in [1] amounted to 37.1 µM; in assay [2], 23.4 µM; in assay [3] it was 35.5 µM; in assay [4], 41.7 µM; in [5], 38.9 µM; in [6] it was 37.1 µM. In addition, the CC50 came out at 30.9 µM in assay [7] and 50.1 µM in assay [8]. The LC50 in the assay with NSCLC stood at 53.7 µM.
As to `CN(C)c1ccc2[nH]c(Cl)c(/C=C3/C(=O)Nc4ccc(O)cc43)c2c1`, the concentration for 50% growth inhibition (GI50) worked out at 2.24 µM in [1]; 5.13 µM with NSCLC; 3.89 µM in assay [2]; 3.8 µM in [3]; 5.25 µM in assay [4]; 7.24 µM in assay [5]. In addition, the figures for the GI50 in assay [6], in [7] and in assay [8] were 5.13 µM, 8.91 µM and 2.88 µM, respectively. The molecule further displayed an LC50 in the assay on NSCLC of 95.5 µM. Further, the CC50 stood at 69.2 µM in [2], 79.4 µM in assay [4] and 91.2 µM in assay [6].
On to `COc1cc2c(/C=C3/C(=O)N(C)c4ccc(O)cc43)c(Cl)n(C)c2cc1C`, for which the GI50 in [1] was found to be 0.05 µM; in the assay on NSCLC, 0.22 µM; in assay [2] it was 0.07 µM; in [3], 0.04 µM; in assay [4], 0.11 µM; in assay [5], 0.26 µM. In addition, the figures for the concentration for 50% growth inhibition (GI50) in [6], in assay [7] and in assay [8] were 0.11 µM, 0.1 µM and 0.06 µM, respectively. Besides, the CC50 in assay [1] amounted to 19.9 µM; in assay [2] it was 26.9 µM; in [3] it was 29.5 µM; in assay [4], 33.1 µM; in assay [5], 47.9 µM; in assay [6] it was 36.3 µM. In addition, the CC50 came out at 24 µM in assay [7] and 40.7 µM in [8]. Further, the LC50 in the assay on NSCLC worked out at 42.7 µM.
For `COc1cc2c(/C=C3/C(=O)Nc4ccc(Br)cc43)c(Cl)n(C)c2cc1C`, the GI50 in [1] was found to be 2.51 µM; in the assay with NSCLC, 1.91 µM; in [2], 1.55 µM; in [3], 0.93 µM; in [4] it was 1.55 µM; in [5], 3.47 µM. Also, the results for the concentration for 50% growth inhibition (GI50) in assay [6], in assay [7] and in assay [8] were 1.7 µM, 1.55 µM and 0.95 µM, respectively. The LC50 in the assay with NSCLC turned out to be 37.1 µM. Besides, the CC50 stood at 29.5 µM in [2]; 38.9 µM in [3]; 31.6 µM in assay [4]; 43.6 µM in assay [5]; 26.9 µM in assay [6]; 26.3 µM in assay [7]. Moreover, the CC50 in assay [8] turned out to be 31.6 µM.
The molecule `O=C1Nc2ccc(Cl)cc2/C1=C\c1c(Cl)[nH]c2c1ccc1ccccc12` yielded a GI50 in assay [7] of 0.38 µM.
With `COc1cc2c(/C=C3/C(=O)Nc4ccc(N(C)C)cc43)c(Cl)n(C)c2cc1C`, the concentration for 50% growth inhibition (GI50) in [1] was determined as 10 µM; in the assay with NSCLC it was 18.2 µM; in assay [2] it was 12.3 µM; in [3] it was 10.7 µM; in assay [4], 10.2 µM; in assay [5], 10.5 µM. The 50% growth inhibitory concentration (GI50) in assay [6] is 11.2 µM; in assay [7], 20.4 µM; in assay [8], 6.92 µM. The results for the CC50 in assay [1], in assay [4] and in assay [5] were 87.1 µM, 93.3 µM and 91.2 µM, respectively.
As for `COc1cc2c(/C=C3/C(=O)N(C)c4ccc(O)cc43)c[nH]c2cc1C`, the GI50 in assay [1] came out at 3.47 µM; with NSCLC, 6.03 µM; in assay [2], 2.95 µM; in assay [3] it was 3.72 µM; in [4], 3.24 µM; in assay [5] it was 5.62 µM. The results for the 50% growth inhibitory concentration (GI50) in assay [6], in [7] and in assay [8] were 5.89 µM, 3.55 µM and 2.75 µM, respectively. The TGI is 36.3 µM in assay [1]; 21.9 µM in the assay on NSCLC; 24.6 µM in assay [2]; 24 µM in assay [3]; 15.1 µM in assay [4]; 31.6 µM in assay [5]. The values for the total growth inhibition concentration (TGI) in assay [6], in assay [7] and in [8] were 28.2 µM, 15.8 µM and 16.2 µM, respectively. The molecule also gave a median lethal concentration (LC50) in the assay with NSCLC of 91.2 µM. Also, the CC50 was 67.6 µM in [3]; 66.1 µM in [4]; 95.5 µM in [5]; 93.3 µM in assay [6]; 63.1 µM in [8].
As for `O=C1Nc2ccc(F)cc2/C1=C\c1c(Cl)[nH]c2c1ccc1ccccc12`, in assay [3], the CC50 was 51.3 µM. Besides, in assay [8], halving of growth (GI50) required 0.4 µM and the CC50 was 70.8 µM.
As for `COc1cc2c(/C=C3/C(=O)Nc4ccccc43)c[nH]c2cc1C`, the values for the GI50 in [1] and in [8] were 0.09 µM and 0.12 µM, respectively. Moreover, the CC50 in assay [3] worked out at 53.7 µM.
